From ChEMBL document CHEMBL1275575, “Susceptibility of Mycobacterium bovis BCG vaccine strains to antituberculous antibiotics” (Antimicrob Agents Chemother, 2009)

System: Homo sapiens
Assay: Drug level in human serum at 10 mg/kg
Assay type: ADME, organism-based
Parameters: dose 10 mg/kg
Details: in vivo

How did the Drug uptake turn out when NNC(=O)c1ccncc1 [ISONIAZID] was run?
Its Drug uptake is 0.4 µg/mL.
